Measurements from ChEMBL document CHEMBL1145317, “Hit-to-lead optimization of 1,4-dihydroindeno[1,2-c]pyrazoles as a novel class of KDR kinase inhibitors” (Bioorg Med Chem Lett, 2006).
Blank lines part the entries; values can stand above or below the compound they belong to.

What was measured:
[1] = target: T1, Vascular endothelial growth factor receptor 2 (Homo sapiens, UniProt P35968)
[2] = target: Fibroblast growth factor receptor (Homo sapiens, UniProt P22607+P11362+P22455+P21802); assay: Inhibition of FGFR by HTRF assay; assay type: protein assay
[3] = target: Tyrosine-protein kinase Lck (Homo sapiens, UniProt P06239); assay: Inhibition of Lck by HTRF assay
[4] = target: Hepatocyte growth factor receptor (Homo sapiens, UniProt P08581); assay: Inhibition of cMet by HTRF assay
[5] = target: Vascular endothelial growth factor receptor 1 (Homo sapiens, UniProt P17948); assay: Inhibition of FLT1 by HTRF assay
[6] = target: Vascular endothelial growth factor receptor 3 (Homo sapiens, UniProt P35916); assay: Inhibition of FLT4 by HTRF assay
[7] = target: Mast/stem cell growth factor receptor Kit (Homo sapiens, UniProt P10721); assay: Inhibition of cKit by HTRF assay
[8] = target: Platelet-derived growth factor receptor (Homo sapiens, UniProt P09619+P16234); assay: Inhibition of PDGFR by HTRF assay; assay type: protein-complex assay
Angiopoietin-1 receptor = Angiopoietin-1 receptor (Homo sapiens, UniProt Q02763); assay: Inhibition of Tie2 by HTRF assay
[9] = target: T1, Vascular endothelial growth factor receptor 2; assay: Inhibition of VEGF-induced human KDR phosphorylation transfected in NIH3T3 cells by ELISA; assay type: functional, cell-based
Mus musculus = assay: Activity against estradiol-induced uterine edema in orally dosed murine; assay type: functional; conditions: po

SMILES: CCN(CC)Cc1ccc2c(c1)-c1n[nH]c(-c3ccsc3)c1C2
IC50 [1]: 0.824 µM

SMILES: Cc1ccsc1-c1[nH]nc2c1Cc1cc(CN3CCN(C)CC3)ccc1-2
IC50 [1]: > 50 µM

SMILES: CN1CCN(C(=O)c2ccc3c(c2)-c2[nH]nc(-c4ccsc4)c2C3)CC1
IC50 [1]: 4.08 µM

SMILES: CN1CCN(c2ccc3c(c2)Cc2c(-c4cccs4)n[nH]c2-3)CC1
IC50 [1]: 1000 µM

SMILES: CN1CCN(Cc2ccc3c(c2)Cc2c-3n[nH]c2-c2cc3ccccc3s2)CC1
IC50 [1]: > 50 µM

The next compounds have a lower IC50 [1] than those just listed; values first:

IC50 [1]: 0.143 µM
SMILES: CN1CCN(CCc2ccc3c(c2)-c2n[nH]c(-c4ccsc4)c2C3)CC1

IC50 [2]: > 50 µM | IC50 [3]: > 50 µM | IC50 [4]: > 50 µM | IC50 [1]: 0.18 µM | IC50 [5]: 0.97 µM | IC50 [6]: 1.57 µM | IC50 [7]: 0.145 µM | IC50 [8]: > 50 µM | IC50 (Angiopoietin-1 receptor): 47.8 µM
SMILES: CN1CCN(Cc2ccc3c(c2)-c2[nH]nc(-c4ccsc4)c2C3)CC1

IC50 [1]: 0.665 µM
SMILES: O=CN1CCN(Cc2ccc3c(c2)-c2n[nH]c(-c4ccsc4)c2C3)CC1

IC50 [1]: 0.19 µM
SMILES: CC(C)N1CCN(Cc2ccc3c(c2)-c2n[nH]c(-c4ccsc4)c2C3)CC1

IC50 [1]: 0.19 µM
SMILES: c1cn(Cc2ccc3c(c2)-c2[nH]nc(-c4ccsc4)c2C3)nn1

IC50 [1]: 0.108 µM
SMILES: c1ncn(Cc2ccc3c(c2)-c2n[nH]c(-c4ccsc4)c2C3)n1

IC50 [2]: 34.355 µM | IC50 [3]: 21.1 µM | IC50 [4]: > 50 µM | IC50 [9]: 0.293 µM | IC50 [1]: 0.147 µM | IC50 [5]: 0.601 µM | IC50 [6]: 0.169 µM | IC50 [7]: 0.103 µM | IC50 (Angiopoietin-1 receptor): 17.6 µM
SMILES: c1cn(Cc2ccc3c(c2)-c2[nH]nc(-c4ccsc4)c2C3)cn1
ED50 (Mus musculus): 20 mg/kg
